The text below walks through data of PMC2628638, “Catalytic inhibition of topoisomerase II by a novel rationally designed ATP-competitive purine analogue” (BMC Chemical Biology, 2009).

Common to all, as to type: biochemical
One assay concerns the target topoisomerase II alpha (Homo sapiens, UniProt P11388). Put plainly: DNA-dependent ATPase assay (malachite green). The arrangement: screened in an ATPase assay using purified full length tagged human topoisomerase II alpha; made in house; host or cells: Sf21 insect cells, baculovirus (pFastBac1). How it is done: DNA-dependent ATP hydrolysis of human topoisomerase II α was monitored by measuring the production of inorganic phosphate using acidic molybdate and malachite green. Specific ATPase activity of every batch was tested in a time-course to determine optimal incubation times and enzyme concentrations within the linear range of the assay. Reactions thus contained 10 – 40 nM topoisomerase II (dimer concentration) in reaction buffer (10 mM Tris HCl pH 7.5, 175 mM KCl, 0.1 mM EDTA, 5 mM MgCl2, 2 mM DTT, 2.5% glycerol and 1.7 nM supercoiled pUC18). The specific activity of the human topoisomerase II α enzyme measured in the ATPase assay was 0.24 μmol PO4·min^-1·mg^-1. […] Compounds at the indicated concentrations were added as serial dilutions prepared in DMSO and preincubated for 10 minutes at 37°C on an orbital shaker. Reactions were started by the addition of 400 μM ATP (Sigma, catalog number A2383) and allowed to proceed for 30 minutes. Reactions were terminated by the addition of 200 μl malachite green reagent and the OD was read immediately at 630 nm on a SpectraMax Plus microtiter plate reader using SoftMax Pro software (Molecular Devices). For kinetic analysis, reactions were carried out in duplicate as described above either in the presence of vehicle (DMSO) or QAP 1. Following a preincubation for 5 minutes, ATP was added at the indicated concentrations to start the reactions, which were allowed to proceed for 17 minutes before stopping and reading as above. From these values the OD values obtained at each respective ATP concentration without enzyme were subtracted for background correction. […] A compromise was found by carrying out the competition experiments with a single concentration of the inhibitor that gave a good inhibition of enzyme activity while keeping a measurable signal. The equations used to fit these experiments are: […]
Each competition experiment was fitted (Grafit version 5.04 – Erithacus Software) with these 3 equations and the models that gave unrealistic inhibition constants (above 10 mM) and/or large standard errors (similar to the value of the fitted parameter) were rejected. Then, the F-test was carried out to identify the best fitting model. An alternative method was used to determine the mode of action of the inhibitor. Dose-response experiments were carried out at different ATP concentrations and the corresponding IC50s determined. According to the Cheng-Prusoff equation for linear competitive inhibition: […]
The IC50 of a competitive inhibitive inhibitor should increase in a linear fashion with the concentration of ATP. The measured IC50s were then plotted in function of the ATP concentrations and linear regression analyses were carried out. […] Mean Km and Vmax values were calculated from two independent experiments.

The next assay addresses KDR (Homo sapiens, UniProt P35968). Put plainly: Radiometric filter binding kinase assay. An excerpt:
(§1) Based on homology structural models of the target, a purine scaffold was designed interactively using the Macromodel modeling software. The designed purine scaffold was subsequently used as a substructure query to search the Novartis compound collection. Around 50 molecules were retrieved in this manner and screened in an ATPase assay using purified full length tagged human topoisomerase II alpha. […] Subsequently, we carried out kinetic analysis with QAP 1 in order to corroborate the mode of action. […] The data were analyzed by non-linear regression analysis using the equations corresponding to competitive, uncompetitive, and mixed inhibition (see Methods) and a statistical analysis (F-test; p ≤ 0.05) was carried out to identify the best model. […] A linearized representation (Eady-Hofstee) of one of these experiments is depicted in Figure 1D. To confirm the mode of action of QAP 1, inhibition studies were also carried out in the presence of different concentration of the inhibitor at different ATP concentrations and the IC50 values were determined. […] Next, QAP 1 was tested against a panel of kinases in a radiometric assay. With the exception of subtle inhibition of the Ret and c-Src tyrosine kinases no effect of the compound was observed on other kinases in the panel, even at the highest concentration tested (Table 1). Thus, QAP 1 is a relatively potent inhibitor of topoisomerase II ATPase function with fairly good selectivity over various serine/threonine/tyrosine protein kinases. To test if QAP 1 inhibited topoisomerase II DNA strand passage activity, nuclear extracts of HL-60 leukemic cells were incubated with catenated kDNA in the presence of increasing concentrations of QAP 1.

A further assay addresses c-Abl-T315I (Homo sapiens, UniProt P00519, T315I). Put plainly: Radiometric filter binding kinase assay.
Text: as §1

In another assay the target is PDK1 (Homo sapiens, UniProt O15530). Put plainly: Radiometric filter binding kinase assay.
Chain of PDK1 (O15530 whole entry): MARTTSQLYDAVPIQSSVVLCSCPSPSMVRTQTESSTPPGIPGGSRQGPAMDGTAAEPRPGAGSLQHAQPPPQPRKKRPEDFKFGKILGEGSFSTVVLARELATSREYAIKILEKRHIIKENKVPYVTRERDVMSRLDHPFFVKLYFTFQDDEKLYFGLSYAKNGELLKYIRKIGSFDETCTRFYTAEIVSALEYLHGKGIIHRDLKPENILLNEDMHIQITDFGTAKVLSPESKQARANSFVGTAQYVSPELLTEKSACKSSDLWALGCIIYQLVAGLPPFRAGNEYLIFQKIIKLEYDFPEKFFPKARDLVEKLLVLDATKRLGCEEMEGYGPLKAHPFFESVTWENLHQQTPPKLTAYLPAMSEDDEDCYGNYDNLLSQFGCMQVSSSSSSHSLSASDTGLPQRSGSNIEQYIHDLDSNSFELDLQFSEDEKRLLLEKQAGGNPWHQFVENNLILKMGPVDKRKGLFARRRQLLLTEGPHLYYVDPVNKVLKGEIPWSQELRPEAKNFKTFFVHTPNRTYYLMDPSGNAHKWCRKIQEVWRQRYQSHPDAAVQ
Text: as §1

The next assay has as its target IGF-1R (Homo sapiens, UniProt P08069). Put plainly: Radiometric filter binding kinase assay.
Text: as §1

The next assay deals with PKB. Put plainly: Radiometric filter binding kinase assay.
Chain of PKB (P31749 whole entry): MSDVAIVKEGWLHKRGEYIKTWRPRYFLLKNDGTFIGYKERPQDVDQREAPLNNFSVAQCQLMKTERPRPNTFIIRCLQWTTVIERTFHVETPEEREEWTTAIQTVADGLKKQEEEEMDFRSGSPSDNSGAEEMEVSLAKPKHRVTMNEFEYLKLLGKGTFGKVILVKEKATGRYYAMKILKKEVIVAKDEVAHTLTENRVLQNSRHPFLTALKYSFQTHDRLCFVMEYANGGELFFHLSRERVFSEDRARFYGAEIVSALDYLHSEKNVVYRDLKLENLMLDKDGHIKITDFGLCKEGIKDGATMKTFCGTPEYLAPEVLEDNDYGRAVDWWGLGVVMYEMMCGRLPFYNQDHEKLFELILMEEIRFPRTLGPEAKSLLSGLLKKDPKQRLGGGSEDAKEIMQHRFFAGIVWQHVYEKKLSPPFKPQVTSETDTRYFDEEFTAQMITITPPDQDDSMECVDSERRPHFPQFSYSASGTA
Text: as §1

The target in the next assay is BRAF-V600E (Homo sapiens, UniProt P15056, V600E). Put plainly: Radiometric filter binding kinase assay.
Text: as §1

In the next assay the target is CDK1/CycB (Homo sapiens, UniProt P06493). Put plainly: Radiometric filter binding kinase assay.
Text: as §1

Another assay concerns the target Fak (Homo sapiens, UniProt Q05397). Put plainly: Radiometric filter binding kinase assay.
Text: as §1

Another assay addresses FGFR3-K560E. Put plainly: Radiometric filter binding kinase assay.
Text: as §1

In another assay the target is EphB4 (Homo sapiens, UniProt P54760). Put plainly: Radiometric filter binding kinase assay.
Chain of EphB4 (P54760 16-987, species assumed): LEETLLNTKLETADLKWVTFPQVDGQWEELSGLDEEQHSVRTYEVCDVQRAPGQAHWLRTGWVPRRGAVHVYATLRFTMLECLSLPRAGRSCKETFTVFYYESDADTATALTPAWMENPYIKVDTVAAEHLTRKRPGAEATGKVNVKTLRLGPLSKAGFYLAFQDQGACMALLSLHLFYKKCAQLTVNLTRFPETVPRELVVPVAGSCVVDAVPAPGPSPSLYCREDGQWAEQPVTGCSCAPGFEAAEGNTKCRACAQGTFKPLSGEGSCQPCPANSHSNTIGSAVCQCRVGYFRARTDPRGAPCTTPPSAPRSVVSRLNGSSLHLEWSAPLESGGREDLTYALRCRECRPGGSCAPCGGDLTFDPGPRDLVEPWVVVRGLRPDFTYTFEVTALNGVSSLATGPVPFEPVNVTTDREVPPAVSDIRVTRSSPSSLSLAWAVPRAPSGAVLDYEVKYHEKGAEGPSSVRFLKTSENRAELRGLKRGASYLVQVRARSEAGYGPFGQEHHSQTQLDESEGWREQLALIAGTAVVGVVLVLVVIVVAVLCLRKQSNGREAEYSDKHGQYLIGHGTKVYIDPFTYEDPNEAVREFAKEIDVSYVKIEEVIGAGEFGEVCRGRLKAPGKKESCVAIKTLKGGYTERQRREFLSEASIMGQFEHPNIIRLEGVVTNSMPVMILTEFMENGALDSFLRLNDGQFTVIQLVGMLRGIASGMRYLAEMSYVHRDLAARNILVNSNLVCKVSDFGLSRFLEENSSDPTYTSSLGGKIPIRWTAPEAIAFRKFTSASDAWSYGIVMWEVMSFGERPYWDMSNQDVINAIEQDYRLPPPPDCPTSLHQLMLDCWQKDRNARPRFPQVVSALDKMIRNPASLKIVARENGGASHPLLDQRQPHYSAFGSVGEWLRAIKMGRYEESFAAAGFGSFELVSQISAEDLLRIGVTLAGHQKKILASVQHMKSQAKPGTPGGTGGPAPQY
Text: as §1

In a further assay the target is Axl (Homo sapiens, UniProt P30530). Put plainly: Radiometric filter binding kinase assay.
Text: as §1

For a further assay, the target named is Ret (Homo sapiens, UniProt P07949). Put plainly: Radiometric filter binding kinase assay. Particulars: mean of two independent experiments ± SD.
Text: as §1

Another assay deals with Flt-3 (Homo sapiens, UniProt P36888). Put plainly: Radiometric filter binding kinase assay.
Text: as §1

Another assay concerns the target c-Met (Homo sapiens, UniProt P08581). Put plainly: Radiometric filter binding kinase assay.
Text: as §1

A further assay deals with Tek (Homo sapiens, UniProt Q02763). Put plainly: Radiometric filter binding kinase assay.
Chain of Tek (Q02763 23-1124, species assumed): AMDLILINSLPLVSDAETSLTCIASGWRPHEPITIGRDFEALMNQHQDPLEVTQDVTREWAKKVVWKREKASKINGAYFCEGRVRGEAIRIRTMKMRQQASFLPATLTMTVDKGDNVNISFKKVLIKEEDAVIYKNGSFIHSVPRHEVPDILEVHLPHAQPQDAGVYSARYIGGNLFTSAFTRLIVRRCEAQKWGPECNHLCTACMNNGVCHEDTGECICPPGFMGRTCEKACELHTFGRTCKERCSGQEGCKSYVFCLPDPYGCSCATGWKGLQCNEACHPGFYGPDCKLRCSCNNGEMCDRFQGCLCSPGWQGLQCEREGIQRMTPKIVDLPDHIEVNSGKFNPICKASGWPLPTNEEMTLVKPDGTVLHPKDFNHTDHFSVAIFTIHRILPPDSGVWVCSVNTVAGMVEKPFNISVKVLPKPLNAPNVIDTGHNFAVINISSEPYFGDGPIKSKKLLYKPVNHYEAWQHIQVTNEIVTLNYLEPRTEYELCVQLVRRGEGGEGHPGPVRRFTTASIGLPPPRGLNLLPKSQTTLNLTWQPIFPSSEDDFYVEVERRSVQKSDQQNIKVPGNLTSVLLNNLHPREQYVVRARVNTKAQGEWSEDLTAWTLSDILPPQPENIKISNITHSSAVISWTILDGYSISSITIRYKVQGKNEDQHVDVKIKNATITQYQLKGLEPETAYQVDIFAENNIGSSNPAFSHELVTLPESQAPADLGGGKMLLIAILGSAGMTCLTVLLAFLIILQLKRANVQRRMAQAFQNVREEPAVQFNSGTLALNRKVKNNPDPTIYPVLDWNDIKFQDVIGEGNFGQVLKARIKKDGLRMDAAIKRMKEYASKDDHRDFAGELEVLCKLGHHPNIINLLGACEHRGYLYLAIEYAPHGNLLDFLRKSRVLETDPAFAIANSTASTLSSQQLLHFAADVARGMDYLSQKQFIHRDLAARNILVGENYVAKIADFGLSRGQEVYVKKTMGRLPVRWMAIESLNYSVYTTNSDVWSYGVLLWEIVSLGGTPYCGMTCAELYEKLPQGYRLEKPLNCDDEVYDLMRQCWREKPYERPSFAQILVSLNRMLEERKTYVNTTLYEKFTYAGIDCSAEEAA
Text: as §1

In another assay the target is c-Abl (Homo sapiens, UniProt P00519). Put plainly: Radiometric filter binding kinase assay.
Text: as §1

Chain of topoisomerase II alpha (P11388 whole entry): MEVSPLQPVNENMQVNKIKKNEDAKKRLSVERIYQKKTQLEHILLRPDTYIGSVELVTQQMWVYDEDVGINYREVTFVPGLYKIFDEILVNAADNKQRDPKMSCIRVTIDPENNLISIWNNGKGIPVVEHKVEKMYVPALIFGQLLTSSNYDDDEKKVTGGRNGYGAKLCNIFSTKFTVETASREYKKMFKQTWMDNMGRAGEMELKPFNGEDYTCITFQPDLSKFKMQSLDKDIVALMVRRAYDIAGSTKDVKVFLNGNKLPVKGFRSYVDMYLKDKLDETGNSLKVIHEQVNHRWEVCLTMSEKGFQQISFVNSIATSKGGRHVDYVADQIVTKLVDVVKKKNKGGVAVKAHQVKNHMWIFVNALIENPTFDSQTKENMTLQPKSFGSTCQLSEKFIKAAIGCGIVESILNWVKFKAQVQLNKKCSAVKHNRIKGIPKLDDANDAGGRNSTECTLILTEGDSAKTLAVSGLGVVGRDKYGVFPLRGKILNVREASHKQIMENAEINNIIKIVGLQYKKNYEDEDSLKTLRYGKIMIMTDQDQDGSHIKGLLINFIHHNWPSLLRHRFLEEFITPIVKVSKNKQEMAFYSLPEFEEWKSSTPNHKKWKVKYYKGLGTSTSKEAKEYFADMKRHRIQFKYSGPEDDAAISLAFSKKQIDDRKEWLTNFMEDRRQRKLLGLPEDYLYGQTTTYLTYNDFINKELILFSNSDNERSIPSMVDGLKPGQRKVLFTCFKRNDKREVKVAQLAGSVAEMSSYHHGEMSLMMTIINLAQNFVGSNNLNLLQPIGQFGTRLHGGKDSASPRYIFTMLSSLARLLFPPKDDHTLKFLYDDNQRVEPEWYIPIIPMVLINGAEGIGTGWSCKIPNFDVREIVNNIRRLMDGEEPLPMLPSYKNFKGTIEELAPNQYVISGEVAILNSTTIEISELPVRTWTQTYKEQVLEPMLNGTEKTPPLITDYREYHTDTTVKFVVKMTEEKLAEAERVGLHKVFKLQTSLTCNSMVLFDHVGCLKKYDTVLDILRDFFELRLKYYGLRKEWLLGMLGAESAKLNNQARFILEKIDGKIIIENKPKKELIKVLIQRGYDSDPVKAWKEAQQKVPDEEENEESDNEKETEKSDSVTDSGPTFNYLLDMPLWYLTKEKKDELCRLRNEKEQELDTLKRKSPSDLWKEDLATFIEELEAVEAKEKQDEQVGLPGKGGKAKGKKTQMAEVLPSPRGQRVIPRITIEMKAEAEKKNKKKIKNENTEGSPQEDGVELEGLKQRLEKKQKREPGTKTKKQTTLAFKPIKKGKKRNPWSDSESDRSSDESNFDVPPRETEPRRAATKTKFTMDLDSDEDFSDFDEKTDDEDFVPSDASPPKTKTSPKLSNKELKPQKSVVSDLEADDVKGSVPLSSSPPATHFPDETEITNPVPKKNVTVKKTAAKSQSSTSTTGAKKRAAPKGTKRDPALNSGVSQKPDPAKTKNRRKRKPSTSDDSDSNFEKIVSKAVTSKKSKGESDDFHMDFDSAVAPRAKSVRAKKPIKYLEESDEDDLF
Chain of FGFR3-K560E (P22607 397-806 K560E): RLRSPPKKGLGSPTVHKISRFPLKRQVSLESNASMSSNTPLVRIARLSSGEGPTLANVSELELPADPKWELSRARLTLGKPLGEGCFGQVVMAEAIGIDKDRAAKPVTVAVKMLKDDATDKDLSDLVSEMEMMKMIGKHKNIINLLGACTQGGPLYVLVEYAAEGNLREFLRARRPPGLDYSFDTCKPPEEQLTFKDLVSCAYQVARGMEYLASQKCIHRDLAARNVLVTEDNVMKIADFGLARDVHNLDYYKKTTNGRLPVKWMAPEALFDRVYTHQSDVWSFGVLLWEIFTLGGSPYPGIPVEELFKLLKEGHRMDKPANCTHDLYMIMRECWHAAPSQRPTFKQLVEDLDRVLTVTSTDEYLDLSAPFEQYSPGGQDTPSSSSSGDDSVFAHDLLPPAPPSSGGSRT

Take `CCc1nc2nc(Nc3ccc4nc(OCCN5CCOCC5)ccc4c3)nc(NC(C)(C)C)c2[nH]1` [QAP 1]: the IC50 (as a rule, the concentration needed to halve the response being measured) at topoisomerase II alpha (full length tagged human topoisomerase II alpha, 400 μM ATP) was 0.128 ± 0.021 µM; on KDR, greater than 10 µM; on c-Abl-T315I, greater than 10 µM; at PDK1, greater than 10 µM; on IGF-1R, greater than 10 µM; on PKB it was greater than 10 µM. Moreover, the IC50 on BRAF-V600E, on CDK1/CycB, at Fak, on FGFR3-K560E, on EphB4 and on Axl was greater than 10 µM in each case. Moreover, the concentration for half-maximal inhibition (IC50) on Ret is 1.35 ± 0.05 µM; at Flt-3 it was greater than 10 µM; at c-Met, greater than 10 µM; at Tek, greater than 10 µM; on c-Abl, greater than 10 µM. Besides, the “mode of inhibition (kinetic analysis, F-test)” value on topoisomerase II alpha (non-linear regression, competitive vs uncompetitive vs mixed models) is “ATP-competitive inhibitor”.
